Entries after “also recorded” stand apart in the source; their conditions may differ.

The source of these data is patent US9090897B2, “Production of IFN-lambda by conventional dendritic cells” (Bavarian Nordic A/S, priority 2009, dated 2015).

One assay relates to FLDC-derived eCD8+ cDCs. The assay is described as follows: In vitro stimulation of sorted FLDC-derived eCD8+ cDCs, IFN-λ ELISA. Format: cell-based, mouse. How it is done: FL bone marrow culture derived dendritic cells (FLDC) were prepared as described (Hochrein et al., 2004). pDCs and eCD8+ and eCD8^− cDC subsets were sorted based on the expression of CD11c, CD45R, CD11b, CD24, and CD172a or CD103 (all BD Biosciences).
Cells were stimulated in vitro with single TLR agonists or combinations thereof containing 10 μg/ml Pam3Cys (InvivoGen), 100 μg/ml poly IC (Axxora), 10 μg/ml LPS (E. coli; Sigma-Aldrich or Axxora), 10 μg/ml R848 (Axxora), 1 μM CpG-1668 or CpG-2216 (TIB-Molbiol), 1 μg/ml profilin of toxoplasma (Axxora). The recombinant cytokines mouse-IL-3, mouse-IL-4, rat-IFN-γ (PeproTech) and mouse-GM-CSF (Tebu-Bio) (10 ng/ml each) were added as indicated. The addition of IL-3 and GM-CSF was based on previous observations that GM-CSF promoted the production of IL-12p70 and that the combination of IL-3 and GM-CSF increased virus induced IFN-λ production in pDCs and cDCs (Hochrein et al., 2000; Hochrein et al., 2004). As source of a parapoxvirus Zylexis, which is used for veterinary purposes was purchased from a pharmacy. HSV-1, in replication deficient form known as disc HSV-1 (HSV-1d) was used as described (Hochrein et al., 2004). IFN-λ in supernatants was analyzed by ELISA and IL-12p70 was determined by FlowCytomix bead assay (Bender Medsystems) according to manufacturer's protocol.
(In general: In an ELISA, binding on a coated surface is turned into a signal by an enzyme label.)

The test system of the next assay is CD8α+ cDCs. As to the kind of experiment: In vitro stimulation of FL expanded ex-vivo isolated splenic CD8α+ cDCs, IFN-λ. Format: cell-based, mouse. Conditions: 5×10^5/ml, IL-3+GM-CSF+IL-4+IFN-γ, 100 μg/ml, 18 h. How it is done:
FIG. 13 depicts that in vivo FL expanded CD8α+cDCs and eCD8α cDCs selectively produce IFN-λ to poly AU in vitro. Highly purified FL expanded ex-vivo isolated splenic 5×10^5/ml were stimulated in the presence of IL-3+GM-CSF+IL-4+IFN-γ with either poly IC (100 μg/ml) or poly AU (100 μg/ml). After 18 h supernatants were analyzed for IFN-λ.
To see if the IFN-λ production to poly AU seen in vivo would correspond with the same cells as in response to poly IC we enhanced the amount of DC in mice with FL treatment and sorted CD8α+ cDCs, eCD8α cDCs and CD11b+/CD172a+cDCs. Those cells were stimulated with poly IC or poly AU.

For the next assay, the system named is splenocytes. The assay is described as follows: Spleen cell fractions separated after in vivo injection, cultured 18 h, IFN-λ in supernatant. Further details: species or system mouse. The settings on record: spleens 1.5-2 h after i.v. injection, magnetic bead separation, 18 h culture. How it is done: 1.5-2 h after i.v. injection of poly IC spleens were harvested and processed. Cell free supernatants were analyzed for IFN-λ after in vitro culture for 18 h. (A) 5×10^6 cells/ml total spleen cells or cells separated by density centrifugation into light density cells or heavy density cells. (B) total spleen cells 25×10^6 cells/ml of WT or CD11c-DTR-tg mice treated 2 days before with diphtheria toxin (DT). (C) Total spleen cells before separation or after magnetic bead separation into the denoted populations. The initial cell number of splenocytes added onto the column was 20×10^6. Without further counting each fraction was distributed into 2 wells with 200 μl medium/well. Bars represent the mean±SD of 2 independent experiments (A+C) or 1 experiment (B) using 2 mice per experiment.
Spleen cells 1.5 h after in vivo injection with DISC HSV-1 were separated with anti-CD45R and magnetic beads into positive and negative fractions. The CD45R negative fraction was further separated into cells positive or negative for CD8α. Separated cells were cultured in vitro for the next 18 h and cell-free supernatants were analyzed for IFN-λ.^˜ Bars represent the mean±SD of 2 independent experiments using one mouse per experiment.

The subject of the next assay is mice. As to the kind of experiment: In vivo challenge (i.v.), serum IFN-λ and IFN-α by ELISA. Further details: species or system mouse. Conditions: 100 μg i.v.

“Polyinosinic:polycytidylic acid [poly IC]”: the IFN-λ production result in the assay with FLDC-derived eCD8+ cDCs (WT eCD8+ cDCs, 18 h) is “produced IFN-λ”; in the assay on CD8α+ cDCs, “able to produce IFN-λ”. Besides, the “IFN-λ production, dependence on Cardif, MyD88, TLR3” value with FLDC-derived eCD8+ cDCs (eCD8+ cDCs generated from Cardif-, MyD88- or TLR3-KO mice) was “involvement of TLR3 but not Cardif or MyD88”. In the assay on splenocytes, the “splenocyte fraction with which IFN-λ production separates” value is reported as “separates with CD45R−/CD11c+/CD8α+ splenocytes”. The “serum IFN-α” value with mice (Cardif-KO mice, 3-4 h) was “complete abrogation of serum IFN-α”; in the assay with mice (IRF7-KO mice, 3-4 h), “almost abrogated”; in the assay with mice (MyD88-KO mice, 3-4 h), “Large amounts”; in the assay on mice (TLR3-KO mice, 3-4 h), “no effect on the production of IFN-α”. Further, the “serum IFN-λ” value in the assay with mice (Cardif-KO mice, 3-4 h) is on record as “no effects on IFN-λ production”; in the assay with mice (MyD88-KO mice, 3-4 h) it was “Large amounts”. Further, the “Serum levels of IFN-α” value is given as “remained easily detectable” in the assay on mice (FL-KO mice, 3-4 h) and “easily detectable; also recorded: Large amounts” in the assay with mice (WT mice, sera after 3-4 h). In addition, the “systemic production of IFN-α” value in the assay with mice (IFN-AR-KO vs WT mice, 3-4 h) is recorded as “largely dependent on the presence of IFN-AR”. Further, the “systemic production of IFN-λ” value with mice (IFN-AR-KO vs WT mice, 3-4 h) was “largely dependent on the presence of IFN-AR”.
